# Tested on: HEK293T cells
# Test: Polysome profile by sucrose gradient sedimentation
# Assay type: cell-based, human
# Conditions: i14G1-12 10 μM, 3 h; for 80S monoribosomes in polysome profile: i14G1-10 20 μM
# Protocol: FIGS. 3A-F: i14G1-10 and i14G1-12 inhibit mRNA translation and sensitize cell survival of eIF4G1 and eIF1 depleted cells. (3A) In-vitro translation using rabbit reticulocyte lysate which was pre-incubated with different concentrations of i14G1-10 or i14G1-12 for 10 minutes followed by the addition of capped firefly luciferase mRNA. After 90 minutes at 30° C., the luminescence signal was measured and the IC50 was calculated. The data represents mean±SEM of 6 independent repeats. (3B) HEK293T cells were treated with DMSO (vehicle control), and sub-cytotoxic concentrations of i14G1-10 (20 μM) and i14G1-12 (10 μM) for 3h. Cell lysates were then subjected to sucrose gradient sedimentation to obtain polysome profiles. (3C) HEK293T cells were treated with the indicated concentrations of i14G1-10 and i14G-12 for 3 h, followed by the addition of puromycin (10 μg/ml) for 5 minutes, after which cells were lysed and analyzed by western blot using an anti-puromycin antibody and anti-GAPDH antibody that serves as a loading control. The graph represents the mean±SEM chemiluminescence signal intensity of puromycin labeling normalized to GAPDH of 3 independent experiments. The calculated IC-50 is shown. (3D) HEK293T cells were transfected with either control or eIF4G1 siRNA in the absence or presence of eIF4G1 expression plasmid. As the eIF4G1 siRNA pool is directed against the 3′UTR, which is absent from the eIF4G1 expression plasmid, the exogenous eIF4G1 is resistant to the siRNA. […] The calculated IC-50 is shown. (3E) The graphs represent cell viability of the indicated cell lines in the presence of increasing concentrations of i14G1-10 and i14G1, analyzed by Luminescent Cell Viability Assay. […]
# Polysome profile and real-time PCR. […] Gradients were fractionated with continuous absorbance measurement at 254 nm using ISCO absorbance detector UA-6. Fractions were pooled according to their absorbance into Free, Light, and Heavy ribosomal fractions. […]
SMILES,80S monoribosomes in polysome profile,heavy polysomal fractions in polysome profile
O=C(/C=C/Sc1ccc(C(F)(F)F)cn1)c1ccccc1 [i14G1-10],increase in 80S monoribosomes,–
Cn1ccnc1S/C(=C/C=C(C#N)C#N)c1ccc(Cl)cc1 [i14G1-12],increase in 80S monoribosomes,substantial decrease in the heavy polysomal fractions

# From patent US20250090510A1, “eIF4G1-eIF1 INHIBITORS AND USE THEREOF” (YEDA RESEARCH AND DEVELOPMENT CO. LTD., priority 2022, published 2025)
